The source of these data is PMC10947113, “A Bivalent Activatable Fluorescent Probe for Screening and Intravital Imaging of Chemotherapy‐Induced Cancer Cell Death” (Angewandte Chemie (Weinheim an Der Bergstrasse, Germany), 2021).

Test [1] has as its system 8 cancer cell lines. Briefly: Classification of drugs by Apotracker Red (apoptosis) and CellTrace Violet (proliferation) staining. It is filed as cell-based. As to conditions: for effect on cell proliferation (CellTrace Violet): Figure S8. How it is done:
(§1) To corroborate the versatility of Apotracker Red, we built a screening platform including a total of 8 cancer cell lines of variable origin and pathogenesis: breast (MCF7, MDA‐MB231 and MMTV‐PyMT (mouse mammary tumour virus‐polyoma middle tumour‐antigen)[23]), lung (A549), prostate (PC3 and LnCap), blood cells (Jurkat) and colon (HT29). All cell lines were cultured under standard conditions and seeded with the fluorescent proliferation marker CellTrace^TM Violet (CV) in 96‐well plates (10–20×10^3 cells/well) for high‐throughput flow cytometry. After drug treatment (i.e., drug addition plus 24 h incubation), Apotracker Red was incubated for 10 min and fluorescence readings were directly acquired without any additional processing steps (Figure 3 a). […] Using this platform, we tested a collection of FDA‐approved drugs in all cancer cell lines and compared their ability to induce apoptosis using Apotracker Red as the reporter. Specifically, we included DNA alkylation agents (e.g., cyclophosphamide, cisplatin, 5‐fluorouracil, gemcitabine, temozolomide), proteasomal and mitotic inhibitors (e.g., bortezomib, docetaxel, paclitaxel) and antagonists of specific proteins (e.g., dexamethasone, tamoxifen; Figure 3 b).
(§2) First, all drugs were tested in the 8 different cell lines to determine the percentages of Apotracker Red‐stained apoptotic cells compared to no treatment (Figure 3 c; Figure S8). […] All 5 drugs were tested at multiple concentrations (from 1 to 100 μM) and with incubation times up to 48 h to examine whether drugs could block cell proliferation at late stages (Figures S9–S13).
Figure S8. Heatmap of relative inhibition of cell proliferation (as indicated by staining of CellTraceTM Violet) after treatment of cancer cell lines with different drugs. Data presented as an average of 3 independent experiments. Cells were stained on day 0 with CellTraceTM Violet (1 µM) and mean fluorescence intensities were determined on the 5L LSR after 24 h of treatment with the different drugs. […]
Cell culture. MCF-7, A549, LnCap, MDA-MB-231, Jurkat T cells and PC3 cells were obtained from American Type Culture Collection (ATCC). HT29 cells were purchased from Merck (S i g m a Aldrich, UK). Mouse Mammary Tumour Virus –Polyoma Middle T antigen (MMTV -PyMT) cells were provided by the lab of Mikala Egeblad (CSHL, US). MMTV-PyMT, MCF-7, LnCap, MDA-MB-231 and Jurkat T cells were cultured in Roswell Park Memorial Institute (RPMI) 1640 Medium supplemented with 10% fetal bovine serum (FBS) , 100 U mL-1 penicillin and 0.1 mg mL-1 streptomycin. A549 and PC3 cells were cultured in Dublecco’s modified Eagle’s medium (DMEM) supplemented with 10% fetal bovine serum (FBS), 100 U mL-1 penicillin and 0.1 mg […]
Flow cytometry drug screen.

Test [2] relates to MDA-MB231 cells. The test can be described thus: Apotracker Red flow cytometry drug screen, MDA-MB231. It is filed as cell-based, human. As to conditions: 1 to 100 μM, 48 h, Apotracker Red 150 nM, 3 independent experiments. How it is done:
as §1, with “cytometry.” for “cytometry. After drug treatment (i.e., drug addition plus 24 h incubation), Apotracker Red was incubated for 10 min and fluorescence readings were directly acquired without any additional processing steps (Figure 3 a).”
Edinburgh. Human peripheral blood neutrophils were isolated as previously described.[3] Briefly, whole blood was drawn into tubes containing anti -coagulant 3.6% sodium citrate (final concentration: 0.4% (w/v)) and centrifuged at 350 g for 20 min at r.t. with lowest acceleration and no brake. Platelet-rich plasma was rem oved, and leukocytes separated from erythrocytes by 0.6% dextran sedimentation in saline for 30 min at r.t. The upper layer was further fractionated using an isotonic discontinuous Percoll density gradient. Neutrophils were harvested from the 63% and 72.9% interface and cultured in Iscove’s Modified Dulbecco’s Medium (IMDM, Gibco) in 5% h um an A B se rum fo r 1 8 h at 37°C, 5% CO2 to in du ce spontaneous […]
Cell culture. MCF-7, A549, LnCap, MDA-MB-231, Jurkat T cells and PC3 cells were obtained from American Type Culture Collection (ATCC). HT29 cells were purchased from Merck (S i g m a Aldrich, UK). Mouse Mammary Tumour Virus –Polyoma Middle T antigen (MMTV -PyMT) cells were provided by the lab of Mikala Egeblad (CSHL, US). […]

Test [3] relates to breast cancer cells (MMTV-PyMT, MDA-MB231, MCF7). The test can be described thus: Dose-dependency study in breast cancer cell lines. The class given is cell-based, mouse and human. As to conditions: 1 to 100 μM, 48 h, Apotracker Red 150 nM, 3 independent experiments. The method, then: as §2, with “S8). […] From this screen, we decided to select 5 drugs with potent pro‐apoptotic response in breast cancer, the most diagnosed cancer worldwide.[25] […] From group 2, we selected cyclophosphamide, tamoxifen, and 5‐fluorouracil as pro‐apoptotic molecules.” for “S8).”
Figure 4 Apotracker Red detects dose‐dependent chemotherapeutic‐induced apoptosis in mouse and human breast cancer cell lines. Cells were plated with 1 μM CV, treated with increasing concentrations (0, 1, 3, 10, 30 and 100 μM) of selected drugs for 48 h, and stained with Apotracker Red (150 nM) before data acquisition. Drugs: tamoxifen (beige), cisplatin (black), 5‐fluorouracil (green), gemcitabine (pink) and cyclophosphamide (red). Data presented as mean±SEM of 3 independent experiments.
Edinburgh. Human peripheral blood neutrophils were isolated as previously described.[3] Briefly, whole blood was drawn into tubes containing anti -coagulant 3.6% sodium citrate (final concentration: 0.4% (w/v)) and centrifuged at 350 g for 20 min at r.t. with lowest acceleration and no brake. Platelet-rich plasma was rem oved, and leukocytes separated from erythrocytes by 0.6% dextran sedimentation in saline for 30 min at r.t. […]
were centrifuged (300 g, 5 min, r.t.), washed once with PBS before addition of 0.05% Trypsin, 0.02% ethylenediaminetetraacetic acid (EDTA) in Hank’s balanced salt solution (HBSS) and incubation at 37°C for 5 min. […] Histograms and mean fluorescence intensities of apoptotic cells were measured on a 5L LSR flow cytometer under the following excitation/emission filters: Apotracker Red (561/610 nm), Annexin V-AF647 (647 /670 nm).
Data were acquired using the FACS Diva software and analysed using the FlowJo X software. […]

Test [4] concerns apoptotic cells (primary human neutrophils, Jurkat T cells). Briefly: Divalent cation-independent staining, flow cytometry with EDTA. The class given is cell-based. The note with it: 2.5 mM EDTA, Apotracker Red 150 nM, Annexin V-AF647 25 nM.
[5] abbreviates: 8 cancer cell lines, 24 h treatment, flow cytometry.

Where two headings read alike, the source gives them in different places.

For `CC(=O)O[C@H]1C(=O)[C@@]2(C)[C@H]([C@H](OC(=O)c3ccccc3)[C@]3(O)C[C@H](OC(=O)[C@H](O)[C@@H](NC(=O)c4ccccc4)c4ccccc4)C(C)=C1C3(C)C)[C@]1(OC(C)=O)CO[C@@H]1C[C@@H]2O` [paclitaxel], the “drug group by Apotracker Red (apoptosis) and CV (proliferation) staining” value (“drug group by Apotracker Red” for short) in test [1] (setting [5]) is “induced apoptosis with little reduction of cell proliferation”. In addition, in test [1] (24 h treatment), the “effect on cell proliferation (CellTrace Violet)” value is on record as “very minor effects on cell proliferation”.
As for `O=P1(N(CCCl)CCCl)NCCCO1` (stereo not shown) [cyclophosphamide], the “drug group by Apotracker Red” value in test [1] is on record as “induced apoptosis with little reduction of cell proliferation”. In test [2], the “Apotracker Red staining in MDA-MB-231 cells, dose-dependency study” value was “weaker Apotracker Red‐staining”.
Consider `CC(C)C[C@H](NC(=O)[C@H](Cc1ccccc1)NC(=O)c1cnccn1)B(O)O` [bortezomib], for which the “drug group by Apotracker Red” value in test [1] (setting [5]) was “induced apoptosis with little reduction of cell proliferation”. For the same molecule, in test [1] (24 h treatment), the “effect on cell proliferation (CellTrace Violet)” value is listed as “very minor effects on cell proliferation”.
Turning to `CC/C(=C(\c1ccccc1)c1ccc(OCCN(C)C)cc1)c1ccccc1` [tamoxifen], the “percentages of Apotracker Red staining across all breast cancer cells, dose-dependency study” value in test [3] is “highest percentages of Apotracker Red staining”. Also, the “drug group by Apotracker Red” value in test [1] (setting [5]) was “induced apoptosis with little reduction of cell proliferation”.
`Cn1nnc2c(C(N)=O)ncn2c1=O` [temozolomide]: in test [1] (setting [5]), the “drug group by Apotracker Red” value is recorded as “inhibited cell proliferation but showed little or no induction of apoptosis”.
On to `Nc1ccn([C@@H]2O[C@H](CO)[C@@H](O)C2(F)F)c(=O)n1` [gemcitabine], for which the “drug group by Apotracker Red” value in test [1] (setting [5]) is “induced apoptosis and decreased cell proliferation”. Moreover, in test [2], the “Apotracker Red staining in MDA-MB-231 cells, dose-dependency study” value is “weaker Apotracker Red‐staining”.
`C[C@@H]1C[C@H]2[C@@H]3CCC4=CC(=O)C=C[C@]4(C)[C@@]3(F)[C@@H](O)C[C@]2(C)[C@@]1(O)C(=O)CO` [dexamethasone]: the “drug group by Apotracker Red” value in test [1] (setting [5]) is “had no impact on proliferation or apoptosis”.
On the same count and under the same terms, with `CC(=O)O[C@@]12CO[C@@H]1C[C@H](O)[C@@]1(C)C(=O)[C@H](O)C3=C(C)[C@@H](OC(=O)[C@H](O)[C@@H](NC(=O)OC(C)(C)C)c4ccccc4)C[C@@](O)([C@@H](OC(=O)c4ccccc4)[C@H]21)C3(C)C` [docetaxel] the entry was “inhibited cell proliferation but showed little or no induction of apoptosis”.
On to `O=c1[nH]cc(F)c(=O)[nH]1` [5-fluorouracil], for which the “drug group by Apotracker Red” value in test [1] (setting [5]) is on record as “induced apoptosis with little reduction of cell proliferation”. Besides, the “Apotracker Red staining in MDA-MB-231 cells, dose-dependency study” value in test [2] was “weaker Apotracker Red‐staining”.

B1: Annexin V‐AF647: a 36 kDa protein marker of PtdSer in the presence of Ca2+ ions (protein, UniProt P08758 2-320, looked up)
Annexin A5: AQVLRGTVTDFPGFDERADAETLRKAMKGLGTDEESILTLLTSRSNAQRQEISAAFKTLFGRDLLDDLKSELTGKFEKLIVALMKPSRLYDAYELKHALKGAGTNEKVLTEIIASRTPEELRAIKQVYEEEYGSSLEDDVVGDTSGYYQRMLVVLLQANRDPDAGIDEAQVEQDAQALFQAGELKWGTDEEKFITIFGTRSVSHLRKVFDKYMTISGFQIEETIDRETSGNLEQLLLAVVKSIRSIPAYLAETLYYAMKGAGTDDHTLIRVMVSRSEIDLFNIRKEFRKNFATSLYSMIKGDTSGDYKKALLLLCGEDD
modifications: Alexa Fluor 647 label
notes: a 36 kDa protein marker of PtdSer in the presence of Ca2+ ions
Consider B1, for which the “staining of apoptotic cells after chelation of divalent cations” value in test [4] is recorded as “failed to bind”.
